Values quoted from earlier work in patent US20090145189A1, “Composition and a manufacturing method thereof” (priority 2007, published 2009).

Key:
[1] = concentrations above 40 wt %, such as 50 wt %

SMILES	Water solubility	Viscosity [1]
O=C(O)CN(CCN(CC(=O)O)CC(=O)O)CCN(CC(=O)O)CC(=O)O [DTPA, diethylenetriamine-N,N,N-penta-acetic acid]	low water solubility	
O=C([O-])CN(CCN(CC(=O)[O-])CC(=O)[O-])CCN(CC(=O)[O-])CC(=O)[O-].[Na+].[Na+].[Na+].[Na+].[Na+] [DTPANa5, penta sodium salt of diethylenetriamine-N,N,N-penta-acetic acid]		too viscous to allow convenient handling
